Experimental data: patent US7741253B2, “Methods and compositions for crosslinking polymers with boronic acids” (Halliburton Energy Services, Inc., priority 2004, dated 2010)

Assay: pH titration (method of Wiskur et al.)
Type: physicochemical
Protocol: The exemplary boronic acid crosslinking agent prepared as described above was compared to 1,4-phenylene diboronic acid and boric acid using a pH titration that was performed according to the method of S. L. Wiskur, et al., Org.

In the case of `OB(O)c1ccc(B(O)O)cc1` [1,4-phenylene diboronic acid], the pH (NaOH 0 μL) is reported as 3.32, the pH (NaOH 1 μL) is reported as 3.47 and the pH (NaOH 2 μL) is reported as 3.67. For the same compound, the pH (NaOH 3 μL) was 4.07, the pH (NaOH 4 μL) was 5.66 and the pH (NaOH 5 μL) was 6.6. It also gave a pH (NaOH 6 μL) of 6.97, a pH (NaOH 7 μL) of 7.18 and a pH (NaOH 8 μL) of 7.33. For the same compound, the pH (NaOH 9 μL) was 7.44, the pH (NaOH 10 μL) was 7.53 and the pH (NaOH 11 μL) was 7.62. The pH (NaOH 12 μL) was 7.69, the pH (NaOH 13 μL) was 7.76 and the pH (NaOH 14 μL) was 7.82. The pH (NaOH 15 μL) was 7.88, the pH (NaOH 16 μL) was 7.94 and the pH (NaOH 17 μL) was 8. For the same compound, the pH (NaOH 18 μL) was 8.05, the pH (NaOH 19 μL) was 8.11 and the pH (NaOH 20 μL) was 8.17. The pH (NaOH 21 μL) was 8.21, the pH (NaOH 22 μL) was 8.25 and the pH (NaOH 23 μL) was 8.39. It also gave a pH (NaOH 24 μL) of 8.46, a pH (NaOH 25 μL) of 8.51 and a pH (NaOH 26 μL) of 8.57. For the same compound, the pH (NaOH 27 μL) was 8.64, the pH (NaOH 28 μL) was 8.7 and the pH (NaOH 29 μL) was 8.76. It also gave a pH (NaOH 30 μL) of 8.82, a pH (NaOH 31 μL) of 8.96 and a pH (NaOH 32 μL) of 9.02. The pH (NaOH 33 μL) was 9.09, the pH (NaOH 34 μL) was 9.15 and the pH (NaOH 35 μL) was 9.21. The pH (NaOH 36 μL) was 9.26, the pH (NaOH 37 μL) was 9.32 and the pH (NaOH 38 μL) was 9.38. The pH (NaOH 39 μL) was 9.43, the pH (NaOH 40 μL) was 9.47 and the pH (NaOH 41 μL) was 9.51. The pH (NaOH 42 μL) was 9.56, the pH (NaOH 43 μL) was 9.6 and the pH (NaOH 44 μL) was 9.64. For the same compound, the pH (NaOH 45 μL) was 9.68, the pH (NaOH 46 μL) was 9.71 and the pH (NaOH 47 μL) was 9.75. The pH (NaOH 48 μL) was 9.79, the pH (NaOH 49 μL) was 9.82 and the pH (NaOH 50 μL) was 9.86. It also gave a pH (NaOH 51 μL) of 9.89, a pH (NaOH 52 μL) of 9.93 and a pH (NaOH 53 μL) of 9.96. It also gave a pH (NaOH 54 μL) of 10, a pH (NaOH 55 μL) of 10.03 and a pH (NaOH 56 μL) of 10.06. It also gave a pH (NaOH 57 μL) of 10.1, a pH (NaOH 58 μL) of 10.13 and a pH (NaOH 59 μL) of 10.16. It also gave a pH (NaOH 60 μL) of 10.19, a pH (NaOH 61 μL) of 10.23 and a pH (NaOH 62 μL) of 10.26. The pH (NaOH 63 μL) was 10.28, the pH (NaOH 64 μL) was 10.3 and the pH (NaOH 65 μL) was 10.33. The pH (NaOH 66 μL) was 10.33, the pH (NaOH 67 μL) was 10.37 and the pH (NaOH 68 μL) was 10.39. The pH (NaOH 69 μL) was 10.42, the pH (NaOH 70 μL) was 10.44 and the pH (NaOH 71 μL) was 10.47. For the same compound, the pH (NaOH 72 μL) was 10.49, the pH (NaOH 73 μL) was 10.49 and the pH (NaOH 74 μL) was 10.53. The pH (NaOH 75 μL) was 10.55, the pH (NaOH 76 μL) was 10.55 and the pH (NaOH 77 μL) was 10.57.
`OB(O)O` [Boric acid] showed a pH (NaOH 0 μL) of 3.03, a pH (NaOH 1 μL) of 3.13 and a pH (NaOH 2 μL) of 3.25. It also gave a pH (NaOH 3 μL) of 3.4, a pH (NaOH 4 μL) of 3.64 and a pH (NaOH 5 μL) of 4.06. For the same compound, the pH (NaOH 6 μL) was 6.08, the pH (NaOH 7 μL) was 7.58 and the pH (NaOH 8 μL) was 7.91. For the same compound, the pH (NaOH 9 μL) was 8.11, the pH (NaOH 10 μL) was 8.26 and the pH (NaOH 11 μL) was 8.39. The pH (NaOH 12 μL) was 8.49, the pH (NaOH 13 μL) was 8.59 and the pH (NaOH 14 μL) was 8.67. It also gave a pH (NaOH 15 μL) of 8.74, a pH (NaOH 16 μL) of 8.82 and a pH (NaOH 17 μL) of 8.89. It also gave a pH (NaOH 18 μL) of 8.96, a pH (NaOH 19 μL) of 9.03 and a pH (NaOH 20 μL) of 9.1. It also gave a pH (NaOH 21 μL) of 9.17, a pH (NaOH 22 μL) of 9.25 and a pH (NaOH 23 μL) of 9.31. For the same compound, the pH (NaOH 24 μL) was 9.38, the pH (NaOH 25 μL) was 9.47 and the pH (NaOH 26 μL) was 9.55. For the same compound, the pH (NaOH 27 μL) was 9.65, the pH (NaOH 28 μL) was 9.74 and the pH (NaOH 29 μL) was 9.85. For the same compound, the pH (NaOH 30 μL) was 9.95, the pH (NaOH 31 μL) was 10.05 and the pH (NaOH 32 μL) was 10.13. It also gave a pH (NaOH 33 μL) of 10.22, a pH (NaOH 34 μL) of 10.29 and a pH (NaOH 35 μL) of 10.35. It also gave a pH (NaOH 36 μL) of 10.4, a pH (NaOH 37 μL) of 10.45 and a pH (NaOH 38 μL) of 10.49. For the same compound, the pH (NaOH 39 μL) was 10.53, the pH (NaOH 40 μL) was 10.56 and the pH (NaOH 41 μL) was 10.59. The pH (NaOH 42 μL) was 10.62, the pH (NaOH 43 μL) was 10.65 and the pH (NaOH 44 μL) was 10.68. The pH (NaOH 45 μL) was 10.7, the pH (NaOH 46 μL) was 10.71 and the pH (NaOH 47 μL) was 10.75. It also gave a pH (NaOH 48 μL) of 10.77, a pH (NaOH 49 μL) of 10.78 and a pH (NaOH 50 μL) of 10.78. The pH (NaOH 51 μL) was 10.81, the pH (NaOH 52 μL) was 10.82 and the pH (NaOH 53 μL) was 10.82. For the same compound, the pH (NaOH 54 μL) was 10.85, the pH (NaOH 55 μL) was 10.85 and the pH (NaOH 56 μL) was 10.87. The pH (NaOH 57 μL) was 10.87, the pH (NaOH 58 μL) was 10.89 and the pH (NaOH 59 μL) was 10.89. The pH (NaOH 60 μL) was 10.91, the pH (NaOH 61 μL) was 10.92 and the pH (NaOH 62 μL) was 10.92. It also gave a pH (NaOH 63 μL) of 10.92, a pH (NaOH 64 μL) of 10.95 and a pH (NaOH 65 μL) of 10.95. It also gave a pH (NaOH 66 μL) of 10.95, a pH (NaOH 67 μL) of 10.97 and a pH (NaOH 68 μL) of 10.97. The pH (NaOH 69 μL) was 11, the pH (NaOH 70 μL) was 11 and the pH (NaOH 71 μL) was 11. For the same compound, the pH (NaOH 72 μL) was 11, the pH (NaOH 73 μL) was 11 and the pH (NaOH 74 μL) was 11. For the same compound, the pH (NaOH 75 μL) was 11.03, the pH (NaOH 76 μL) was 11.03 and the pH (NaOH 77 μL) was 11.03.
